Columns and labels:
[1] = target: partially purified β-lactamase K1; assay: β-Lactamase inhibition (hydrolysis of ampicillin); type: biochemical; conditions: β-lactamase KI; ampicillin sodium 500 µg/ml, 37°C, pH7
Description: (§1) The compounds have been tested for their inhibitory activity against partially purified β-lactamases from Escherichia coli (either TEM or RPI), Klebsiella aerogenes (K1) and Staphylococcus aureus (PCI). The substrate used was ampicillin sodium.
(§2) Ampicillin sodium at a concentration of 500 µg/ml was reacted with the enzyme at 37°C and pH7. The enzyme concentration was such as to destroy all the ampicillin within 10 minutes. The reaction was followed spectrophotometrically by observing the loss of absorption at 238 nm. Concentrations of the compound were added to inhibit the reaction, and the I5O value represents µg/ml of compound halving the initial velocity of hydrolysis of ampicillin.

[2] = target: T1, partially purified β-lactamase PCI (Staphylococcus aureus, UniProt P00807); assay: β-Lactamase inhibition (hydrolysis of ampicillin); type: biochemical; conditions: ampicillin sodium 500 µg/ml, 37°C, pH7, read-out: μg/ml of compound giving 50% inhibition of hydrolysis of ampicillin (converted)
T1 construct: partially purified β-lactamases from Escherichia coli (either TEM or RPI), Klebsiella aerogenes (K1) and Staphylococcus aureus (PCI); endogenous in cells; host or cells: Staphylococcus aureus (PCI), enzyme partially purified from the producing bacterium
Description: as §1, §2

[3] = target: T2, partially purified β-lactamase TEM (Escherichia coli, UniProt P62593); assay: β-Lactamase inhibition (hydrolysis of ampicillin); type: biochemical; conditions: ampicillin sodium 500 µg/ml, 37°C, pH7, read-out: μg/ml of compound giving 50% inhibition of hydrolysis of ampicillin (converted)
T2 construct: partially purified β-lactamases from Escherichia coli (either TEM or RPI); endogenous in cells; host or cells: Escherichia coli carrying the TEM plasmid, enzyme partially purified from the bacterium
Description: as §1, §2

E. cloacae 1051E = assay: Minimum Inhibitory Concentration (MIC), agar dilution; type: cell-based; conditions: 18 hours at 37°C
Text: (§3) Serial two-fold dilutions of freshly prepared test solution were made into Oxoid No. 1 Nutrient agar with or without added enrichment and poured into petri dishes. Plates were innoculated with a multipoint innoculator with innoculum containing approximately 10^5 colony forming units of the organisms shown in Table 1, all of which are clinical isolates.

Staph. aureus 853E [4] = assay: as above; type: cell-based; conditions: 18 hours at 37°C
Text: as §3

Micrococcus SP 1810E = assay: as above; type: cell-based; conditions: 18 hours at 37°C
Text: as §3

H. influenzae 1184E = assay: as above; type: cell-based; conditions: 18 hours at 37°C
Text: as §3

K. aerogenes 1522E = assay: as above; type: cell-based; conditions: 18 hours at 37°C
Text: as §3

S. marcescens 1324E = assay: as above; type: cell-based; conditions: 18 hours at 37°C
Text: as §3

E. coli 851E = assay: as above; type: cell-based; conditions: 18 hours at 37°C
Text: as §3

E. cloacae 1321E = assay: as above; type: cell-based; conditions: 18 hours at 37°C
Text: as §3

E. coli (TEM^+) 1193E = assay: Synergy testing with amoxycillin (MIC, agar dilution); type: cell-based
Text: as §3
(§4) Method as for 1, incorporating amoxycillin in serial two-fold dilutions along with a sub-inhibitory, fixed concentration of the test clavulanic acid derivative, as shown in the Table. All of the organisms are clinical isolates.

K. aerogenes 1963E = assay: as above; type: cell-based
Text: as §3, §4

Pr. rettgeri 1356E = assay: as above; type: cell-based
Text: as §3, §4

Toxicity in mice = conditions: mouse, in vivo, ip; administered intraperitoneally to mice
Staph. aureus 853E [5] = assay: Synergy testing with amoxycillin (MIC, agar dilution); type: cell-based
Text: as §3, §4

[6] = in the presence of 1µg/ml of compound
[7] = in the presence of 4µg/ml of compound

T1 sequence (P00807 25-281): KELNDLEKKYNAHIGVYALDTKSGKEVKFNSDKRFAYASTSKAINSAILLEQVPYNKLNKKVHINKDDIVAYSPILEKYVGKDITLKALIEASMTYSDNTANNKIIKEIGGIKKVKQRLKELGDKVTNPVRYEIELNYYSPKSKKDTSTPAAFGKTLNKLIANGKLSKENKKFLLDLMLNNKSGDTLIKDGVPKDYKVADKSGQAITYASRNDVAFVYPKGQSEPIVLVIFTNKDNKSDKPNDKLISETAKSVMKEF
T2 sequence (P62593 24-286 limits assumed): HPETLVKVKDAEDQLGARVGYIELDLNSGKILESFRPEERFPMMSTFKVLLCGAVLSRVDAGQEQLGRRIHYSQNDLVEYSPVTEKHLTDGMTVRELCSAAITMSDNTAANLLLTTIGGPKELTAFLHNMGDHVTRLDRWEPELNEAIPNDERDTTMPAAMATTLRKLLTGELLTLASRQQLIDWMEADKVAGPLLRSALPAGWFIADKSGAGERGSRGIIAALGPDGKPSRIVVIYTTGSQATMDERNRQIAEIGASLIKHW

Structure (SMILES)	μg/ml of compound giving 50% inhibition of hydrolysis of ampicillin [1]	IC50 [2]	IC50 [3]	MIC (agar dilution) of compound (E. cloacae 1051E)	MIC (agar dilution) of compound (Staph. aureus 853E [4]; Staph. aureus 835E)	MIC (agar dilution) of compound (Micrococcus SP 1810E)	MIC (agar dilution) of compound (H. influenzae 1184E)	MIC (agar dilution) of compound (K. aerogenes 1522E)	MIC (agar dilution) of compound (S. marcescens 1324E)	MIC (agar dilution) of compound (E. coli 851E)	MIC (agar dilution) of compound (E. cloacae 1321E)	MIC of amoxycillin (E. coli (TEM^+) 1193E; [6])	MIC of amoxycillin (K. aerogenes 1963E; [6])	MIC of amoxycillin (Pr. rettgeri 1356E; [6])	MIC of amoxycillin (Pr. rettgeri 1356E; [7])	LD50 (Toxicity in mice)	MIC (agar dilution) of compound (Staph. aureus 853E [4]; Staph. aureus 853E)	also measured
CCOC(=O)c1nnn(C/C=C2\O[C@@H]3CC(=O)N3[C@H]2C(=O)O)c1C(=O)OCC [Example 2, Sodium (3R,5R,Z)-2-[2-(4,5-diethoxcarbonl-1,2,3-triazol-1-yl)-ethylidene]-clavam-3-carboxylate]	0.8 µg/mL	5.33 µM	0.761 µM	–	–	–	–	–	–	–	–	–	–	–	–	–	–	–
CCOC(=O)c1cn(C/C=C2\O[C@@H]3CC(=O)N3[C@H]2C(=O)O)nn1 [Example 4]	0.35 µg/mL	0.419 µM	–	16 mg/L	<0.1 mg/L	<0.1 mg/L	62 mg/L	8 mg/L	125 mg/L	4 mg/L	16 mg/L	> 250 mg/L	2 mg/L	125 mg/L	4 mg/L	> 500 mg/kg	–	–
CC(=O)c1cn(C/C=C2\O[C@@H]3CC(=O)N3[C@H]2C(=O)O)nn1 [Example 6, Sodium (3R,5R,Z)-2-[2-(4-acetyl-1,2,3-triazol-l-yl)-ethlidene]-clavam-3-carboxylate]	0.155 µg/mL	0.616 µM	–	8 mg/L	<0.1 mg/L	<0.1 mg/L	62 mg/L	8 mg/L	62 mg/L	4 mg/L	8 mg/L	–	–	–	–	> 500 mg/kg	–	–
O=C(O)c1cn(C/C=C2\O[C@@H]3CC(=O)N3[C@H]2C(=O)O)nn1 [Example 8, Disodium (3R,5R.Z)-2-[2-(4-carboxy-1.2.3-triazol-l-yl)-ethylidene]-clavam-3-carboxylate]	0.22 µg/mL	9.86 µM	0.374 µM	16 mg/L	8 mg/L	8 mg/L	31 mg/L	16 mg/L	31 mg/L	8 mg/L	8 mg/L	–	–	–	–	–	–	–
CC(=O)c1cnnn1C/C=C1\O[C@@H]2CC(=O)N2[C@H]1C(=O)O [Example 10, Sodium (3R,5R.Z)-2-[2-(5-acetvl-1.2,3-triazol-l-yl)-ethylidene]-clavam-3-carboxylate]	0.62 µg/mL	2.4 µM	1.98 µM	–	–	–	–	–	–	–	–	–	–	–	–	–	–	–
NC(=O)c1cn(C/C=C2\O[C@@H]3CC(=O)N3[C@H]2C(=O)O)nn1 [Example 12]	0.34 µg/mL	1.23 µM	0.426 µM	4 mg/L	–	0.2 mg/L	31 mg/L	8 mg/L	8 mg/L	4 mg/L	4 mg/L	62 mg/L	1 mg/L	8 mg/L	1 mg/L	–	0.5 mg/L	MIC of amoxycillin (E. coli (TEM^+) 1193E; [7]): 1 mg/L; MIC of amoxycillin (K. aerogenes 1963E; [7]): < 0.1 mg/L
CNC(=O)c1cn(C/C=C2\O[C@@H]3CC(=O)N3[C@H]2C(=O)O)nn1 [Example 14, Sodium (3R,5R.Z)-2-{2-[4-(N-methylcarbamoyl)-1.2.3-triazol-1-yl]-ethylidene}-clavam-3-carboxylate]	0.7 µg/mL	2.18 µM	–	16 mg/L	–	1 mg/L	31 mg/L	16 mg/L	31 mg/L	8 mg/L	16 mg/L	62 mg/L	8 mg/L	8 mg/L	1 mg/L	> 500 mg/kg	1 mg/L	MIC of amoxycillin (E. coli (TEM^+) 1193E; [7]): 4 mg/L; MIC of amoxycillin (Staph. aureus 853E [5]; [6]): < 0.1 mg/L; MIC of amoxycillin (K. aerogenes 1963E; [7]): 0.2 mg/L
N#Cc1cn(C/C=C2\O[C@@H]3CC(=O)N3[C@H]2C(=O)O)nn1 [Example 17, Sodium (3R,5R,Z)-2-[2-(4-cyano-1,2,3-triazol-1-yl)-ethylidene]clavam-3-carboxylate]	0.39 µg/mL	2.54 µM	0.363 µM	4 mg/L	<0.1 mg/L	–	16 mg/L	8 mg/L	31 mg/L	2 mg/L	4 mg/L	31 mg/L	2 mg/L	31 mg/L	2 mg/L	> 500 mg/kg	–	MIC of amoxycillin (K. aerogenes 1963E; [7]): 0.5 mg/L
COC(=O)c1cn(C/C=C2\O[C@@H]3CC(=O)N3[C@H]2C(=O)O)nn1 [Example 19, Sodium (3R,5R,Z)-2-[2-(4-methoxycarbonyl-1,2,3-triazol-1-y)ethylidene]clavam-3-carboxylate]	–	–	–	16 mg/L	–	–	62 mg/L	16 mg/L	62 mg/L	4 mg/L	16 mg/L	–	–	16 mg/L	1 mg/L	> 500 mg/kg	0.5 mg/L	–
O=C(O)[C@H]1/C(=C/Cn2ccnn2)O[C@@H]2CC(=O)N21 [Example 22]	–	–	–	8 mg/L	–	–	16 mg/L	8 mg/L	8 mg/L	4 mg/L	8 mg/L	–	–	–	–	–	2 mg/L	–
CC1(C)S[C@@H]2[C@H](NC(=O)[C@H](N)c3ccc(O)cc3)C(=O)N2[C@H]1C(=O)O [amoxycillin, reference compound]	–	–	–	–	–	–	–	–	–	–	–	–	–	–	–	–	–	MIC of amoxycillin (E. coli (TEM^+) 1193E; amoxycillin alone): > 250 mg/L; MIC of amoxycillin (Staph. aureus 853E [5]; amoxycillin alone): 2 mg/L; MIC of amoxycillin (K. aerogenes 1963E; amoxycillin alone): 62 mg/L; MIC of amoxycillin (Pr. rettgeri 1356E; amoxycillin alone): > 250 mg/L

Source: patent EP0001516A1, “Beta-Lactam compounds, processes for their preparation, pharmaceutical compositions containing them and intermediates of use in their preparation” (GLAXO GROUP LIMITED, priority 1977, dated 1979)
